Source: PMC4783973, “Synthetic Human TLR9-LRR11 Peptide Attenuates TLR9 Signaling by Binding to and thus Decreasing Internalization of CpG Oligodeoxynucleotides” (International Journal of Molecular Sciences, 2016)

Key:
[1] = system: IκBα phosphorylation and NF-κB activation; conditions: ref [19],[20]; cited from earlier work
From the text: (§1) NF-κB is one of the most important inflammatory switches that comprise a series of transcription factors that regulate the expressions of various proinflammatory cytokines (IL-1, IL-6, IL-8 and TNF-α). NF-κB activation is depended on the degradation and phosphorylation of IκBα [12].

[2] = system: CpG ODN-induced cytokine release; conditions: ref [19],[20]; cited from earlier work
From the text: CpG ODN-induced diseases, such as sepsis and some autoimmune disorders, are triggered by uncontrolled release of proinflammatory cytokines, e.g., TNF-α and IL-6 [18]. […] Herein, we firstly evaluated the inhibitory effect of SP on CpG ODN-induced cytokine release in the cellular tests. Tw ... || NF-κB is one of the most important inflammatory switches that comprise a series of transcription factors that regulate the expressions of various proinflammatory cytokines (IL-1, IL-6, IL-8 and TNF-α). NF-κB activation is depended on the degradation and phosphorylation of IκBα [12].

NF-κB p65 subunit = experiment: NF-κB activity assay, p65 subunit in nuclear extract of RAW264.7 cells (Trans^AM ELISA); type: cell-based; conditions: peptide alone 4.5 μM; 4 h; n = 3
Description: Figure 3 Synthetic peptide (SP) inhibited NF-κB activation induced by CpG oligodeoxynucleotides (CpG ODN) in RAW264.7 cells. RAW264.7 cells (5.0 × 10^6 cells) grown in six-well plates were treated with 1.5 μM of ODN2006 (A) or ODN107 (B) preincubated with SP (0, 0.5, 1.5, or 4.5 μM) or unrelated peptide (URP) (4.5 μM) at 37 °C for 15 min. After incubation for 4 h, the cells were collected to extract nuclear proteins. The p65 subunit was detected using enzyme-linked immunosorbent assay (ELISA) kits. Data from one of three independent experiments are shown (n = 3). “*”, p < 0.05 vs. ODN2006 or ODN107; “**”, p < 0.01 vs. ODN2006 or ODN107; “#”, p > 0.05 vs. ODN2006 or ODN107.
(§2) The RAW264.7 cell line was purchased from American Type Culture Collection (ATCC, Manassas, VA, USA). Cells were cultured in DMEM (high glucose) medium containing 10% FCS in a 37 °C humidified atmosphere with 5% CO2. Cells diluted with 0.4% trypan blue in phosphate-buffered saline (PBS, 0.1 mM, pH 7.2–7.4) were counted using a hemocytometer.
RAW264.7 cells (5.0 × 10^6 cells) were placed in six-well plates for 4 h, and the supernatants were then replaced with fresh medium containing 1.5 μM of ODN2006 or ODN107 that had been preincubated with SP (0, 0.5, 1.5, or 4.5 μM) or URP (4.5 μM) at 37 °C for 15 min. After incubation for 4 h, the cells were collected to extract nuclear proteins. Equal amounts of each sample were used to detect the DNA binding activity of the NF-κB p65 subunit using Trans^AM NF-κB ELISA kits (Active Motif), according to the manufacturer’s instructions.

ODN2006 = experiment: IAsys biosensor binding to immobilized biotinylated ODN2006; conditions: IAsys Plus biosensor; peptide 50 μM
Description: Figure 8 Synthetic peptide (SP) specifically binds ODN2006. (A) Binding curves generated by the IAsys biosensor. Biotinylated ODN2006 was immobilized on the surface of a streptavidin-coated cuvette. A series of concentration of SP (3.1, 6.3, 12.5, 25 or 50 μM) or unrelated peptide (URP) (50 μM) were added separately into the cuvette to generate the binding curves. Data were analyzed using FASTplot, and the dissociation equilibrium constant (KD) of SP was calculated using FASTfit; (B) Binding curves generated by the Biacore biosensor. Biotinylated ODN2006 was immobilized on a streptavidin-coated chip, and then a series of concentrations of SP (0.63, 1.25, 2.5, 5 or 10 μM) or URP (10 μM) were loaded separately to generate the binding curves. Data analysis and KD calculation were performed using the BIAevaluation software.
The affinity assay was firstly carried out using an IAsys Plus affinity biosensor (Thermo Labsystem, Altrincham, Cheshire, UK), according to our previous report. Biotinylated ODN2006 was immobilized on the surface of a streptavidin-coated cuvette according to the user manual. […] Binding curves were analyzed and visualized using FASTplot (Thermo), and the dissociation equilibrium constant (KD) of SP with ODN2006 was calculated using FASTfit (Thermo).

RAW264.7 cells [3] = experiment: FAM-2006 internalization within RAW264.7 cells, laser confocal scanning; type: cell-based; conditions: peptide 4.5 μM preincubated with FAM-2006 1.5 μM; 30 min; n = 100
Description: Figure 5 Synthetic peptide (SP) inhibited ODN2006 internalization, as assessed using laser confocal scanning (Scale bar = 20 μm). RAW264.7 cells (1 × 10^6 cells) grown on 2-cm glass bottom dishes were treated with normal medium, 1.5 μM of FAM-labeled ODN2006 (FAM-2006) that had been preincubated with SP (0, 0.5, 1.5 or 4.5 μM) or unrelated peptide (URP; 4.5 μM) at 37 °C for 15 min. After treatment for 30 min, cells were washed with warm phosphate buffered saline (PBS) and fixed with 4% (m/v) paraformaldehyde, then stained with DAPI (4′,6-diamidino-2-phenylindole) (blue). The intracellular FAM-2006 (green) was observed using a laser confocal microscope (A); Mean fluorescence intensity (MFI) values (B) and the percentages of cells with FAM-2006 dots (green fluorescence) (C) were calculated by the ZENlite 2012 software (n = 100). “**”, p < 0.01; “#”, p > 0.05 vs. FAM-2006 alone.
as §2, with “hemocytometer. […]” for “hemocytometer.”

RAW264.7 cells [4] = experiment: TNF-α and IL-6 release from RAW264.7 cells, both cytokines stated together (ELISA); type: cell-based, mouse; conditions: peptide alone, without CpG ODN; 6 h
Description: Figure 1 Synthetic peptide (SP) decreased TNF-α and IL-6 release from RAW264.7 cells treated with CpG oligodeoxynucleotides (CpG ODN). RAW264.7 cells (4.0 × 10^5 cells) grown in 48-well plates were treated with 1.5 μM of ODN2006 or ODN107 preincubated with SP (0, 0.5, 1.5, or 4.5 μM) or unrelated peptide (URP) (4.5 μM) at 37 °C for 15 min. After incubation for 6 h, the supernatants were collected to detect TNF-α (A) and IL-6 (B) using enzyme-linked immunosorbent assay (ELISA) kits. Data from one of three independent experiments are shown (n = 4). “*”, p < 0.05 vs. ODN2006 or ODN107; “**”, p < 0.01 vs. ODN2006 or ODN107; “#”, p > 0.05 vs. ODN2006 or ODN107.
Experiments were performed as described in Figure 1. The concentrations of ODN2006, LPS, PAM3 and SP were 1.5 μM, 20 ng/mL, 5 μg/mL and 1.5 μM, respectively. Data from one of three independent experiments are shown (n = 3).
as §2
RAW264.7 cells (4.0 × 10^5 cells) were incubated in 48-well plates for 4 h, and supernatants were replaced with 0.4 mL of serum-free DMEM medium containing 1.5 μM of ODN2006 or ODN107, which had been preincubated with 0, 0.5, 1.5 or 4.5 μM of SP or 4.5 μM of URP at 37 °C for 15 min. After incubation for 6 h, the supernatants were collected to detect TNF-α and IL-6 concentrations using corresponding ELISA kits (eBioscience).

[5] = system: LPS-induced cytokine release; conditions: by decreasing both IκBα and ERK1/2 phosphorylation; ref [22]; cited from earlier work
IκBα and ERK1/2 = conditions: LPS-induced; ref [22]; cited from earlier work
From the text: as §1

Compound: kukoamine B
- effect on IκBα phosphorylation and NF-κB activation [1]: inhibitors of IκBα phosphorylation and NF-κB activation
- effect on CpG ODN-induced cytokine release [2]: inhibitors of CpG ODN-induced cytokine release
- effect on proinflammatory cytokines [2]: inhibited proinflammatory cytokines

Compound: LQTLDLRDNALTTIHFIPSIPD [URP, unrelated peptide derived from LRR14 of human TLR5, used as negative control]
- effect of peptide alone on p65 activation (NF-κB p65 subunit): no effect
- binding response to ODN2006 (ODN2006): no such response
- mean fluorescence intensity (MFI) produced by FAM-2006 within the cells (RAW264.7 cells [3]): no such effect
- effect of peptide alone on TNF-α and IL-6 release (RAW264.7 cells [4]): no influence on cytokines release

Compound: COc1ccc(/C=C/c2cc(O)cc(O)c2)cc1 [desoxyrhapontigenin]
- effect on LPS-induced cytokine release [5]: inhibited LPS-induced cytokine release
- effect on IκBα and ERK1/2 phosphorylation (IκBα and ERK1/2): decreasing both of IκBα and ERK1/2 phosphorylation
